The numbers were not newly measured in US7482343B2, “Compounds, methods and compositions” (Cytokinetics, Inc., priority 2002, dated 2009), which cites them from elsewhere.

The data set concerns A549 cells. To be noted: data provided by National Cancer Institute.
`O=c1[nH]cc(F)c(=O)[nH]1` [5-fluorouracil]: the GI50 (as a rule, the concentration at which growth is held to half of that of the control) is 1000 nM.

For `COc1cccc2c1C(=O)c1c(O)c3c(c(O)c1C2=O)C[C@@](O)(C(=O)CO)C[C@@H]3O[C@H]1C[C@H](N)[C@H](O)[C@H](C)O1` [doxorubicin], the GI50 is 63 nM. As to `NC(=O)NO` [hydroxyurea], the GI50 is 500000 nM. As to `CC(=O)O[C@H]1C(=O)[C@@]2(C)[C@H]([C@H](OC(=O)c3ccccc3)[C@]3(O)C[C@H](OC(=O)[C@H](O)[C@@H](NC(=O)c4ccccc4)c4ccccc4)C(C)=C1C3(C)C)[C@]1(OC(C)=O)CO[C@@H]1C[C@@H]2O` [paclitaxel], the 50% growth inhibitory concentration (GI50) was 4 nM.
